In US8664387B2, “Pyridoquinazolinone M1 receptor positive allosteric modulators” (Merck Sharp & Dohme Corp., priority 2009, dated 2014):

Target: T1, acetylcholine muscarinic M1 receptor (Homo sapiens, UniProt P11229)
T1 construct: expressed in transfected cells; host or cells: CHOnfat cells (CHOnfat/hM1; geneticin selection)
T1 sequence (P11229 1-460): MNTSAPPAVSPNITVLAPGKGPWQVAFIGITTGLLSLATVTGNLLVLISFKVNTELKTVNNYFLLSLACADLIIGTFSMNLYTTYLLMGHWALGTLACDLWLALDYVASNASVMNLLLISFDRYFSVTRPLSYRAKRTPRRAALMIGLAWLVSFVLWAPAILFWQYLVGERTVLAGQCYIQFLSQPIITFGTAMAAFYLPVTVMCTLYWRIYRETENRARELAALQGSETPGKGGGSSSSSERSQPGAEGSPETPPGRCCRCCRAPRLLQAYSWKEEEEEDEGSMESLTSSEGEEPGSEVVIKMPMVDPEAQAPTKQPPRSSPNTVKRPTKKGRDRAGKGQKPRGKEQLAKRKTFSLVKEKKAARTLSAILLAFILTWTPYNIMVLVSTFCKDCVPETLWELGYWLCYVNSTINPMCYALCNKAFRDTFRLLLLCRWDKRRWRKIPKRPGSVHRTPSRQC
Assay: muscarinic FLIPR calcium assay, M1 positive allosteric modulation
Assay type: cell-based
Conditions: CHOnfat/hM1 cells, FLIPR intracellular Ca2+, 4 min preincubation, then EC20 acetylcholine (3 nM final); read-out: IP Value (inflection point)
Description: The assay studies the effect of one or several concentrations of test compounds on basal or acetylcholine-stimulated Ca^2+ levels using FLIPR.
Compounds are prepared and subjected to a preincubation period of 4 min. Thereafter, a single EC20 concentration of acetylcholine is added to each well (3 nM final). The intracellular Ca^2+ level of each sample is measured and compared to an acetylcholine control to determine any modulatory activity.
Cells: CHOnfat/hM1, hM2, hM3 or hM4 cells are plated 24 hr before the assay at a density of 18,000 cells/well (100 μL) in a 384 well plate. CHOnfat/hM1 and CHOnfat/hM3 Growth Medium: 90% DMEM (Hi Glucose); 10% HI FBS; 2 mM L-glutamine; 0.1 mM NEAA; Pen-Strep; and 1 mg/ml Geneticin, are added. For M2Gqi5CHOnfat and M4Gqi5CHOnfat cells, an additional 600 ug/ml hygromycin is added.
Equipment: 384 well plate, 120 μL addition plate; 96-well Whatman 2 ml Uniplate Incubator, 37° C., 5% CO2; Skatron EMBLA-384 Plate Washer; Multimek Pipetting System; Genesis Freedom 200 System; Mosquito System; Temo Nanoliter Pipetting System; and FLIPR^384 Fluorometric Imaging Plate Reader System are used.
Buffers. Assay Buffer: Hanks Balanced Salt Solution, with 20 mM Hepes, 2.5 mM Probenecid (Sigma P-8761) first dissolved in 1 N NaOH, 1% Bovine Serum Albumin (Sigma A-9647). Dye Loading Buffer: Assay Buffer plus 1% Fetal Bovine Serum and Fluo-4AM/Pluronic Acid Mixture. 2 mM Fluo-4AM ester stock in DMSO (Molecular Probes F-14202) Concentration of 2 μM in buffer for a final concentration of 1 μM in Assay. 20% Pluronic Acid Solution stock, with concentration of 0.04% in Buffer, 0.02% in Assay.
65 μL of 2 mM Fluo-4AM are mixed with 130 μL of 20% Pluronic Acid. The resulting solution and 650 μL FBS is added to the assay buffer for a total volume of 65 mL. Positive Controls: 4-Br-A23187: 10 mM in DMSO; final concentration 10 μM. Acetylcholine: 10 mM in water, working stock at both 20 μM and 30 µM in assay buffer, final concentration of 10 μM. This is used to check the maximum stimulation of the CHOK1/hM1 cells. 20 μM (2×) acetylcholine is added in the preincubation part of the assay, and the 30 μM (3×) stock is added in the second part. (EC20)Acetylcholine: 10 mM in water, working stock of 9 nM (3×), and final concentration in assay is 3 nM. This is used after the preincubation with test compounds. Addition of the EC20 Acetylcholine to each well with a test compound will ascertain any modulator activity. 24 wells contain 3 nM Acetylcholine alone as a control.
Determining Activity of Putative Compounds: • Screening Plate: Compounds are titrated in 96-well plates (columns 2-11), 100% DMSO, started at a concentration of 15 mM (150× stock concentration), and 3-fold serial dilutions using Genesis Freedom200 System. Four 96-well plates are combined into a 384-well plate using Mosquito Nanoliter Pipetting System by transferring 1 μl of serial diluted compounds to each well, and 1 mM acetylcholine (100× stock concentration) were added as a control. Using Temo, 49 μl assay buffer is added to each well of the 384-well plate right before assay.
In a 96-well Whatman 2 ml Uniplate, 9 nM Acetylcholine (3×) is pipetted into wells corresponding to the screening compounds, and into control wells. The 30 μM acetylcholine control (3×) is added into control wells, and the 3× agonist plate is transferred into a 384 well plate.
Cells are washed three times with 100 μL of buffer, leaving 30 μL of buffer in each well. Using Multimek, 30 μL of Dye Loading Buffer is added into each well and incubated at 37° C., 5% CO2 for up to one hr.
After 60 min, the cells are washed three times with 100 μL of buffer, leaving 30 μL of buffer in each well. The cell plate, screening plate, and agonist addition plates are placed on the platform in the FLIPR and the door closed. A signal test to check background fluorescence and basal fluorescence signal is performed. Laser intensity is adjusted if necessary. […]

| Structure (SMILES) | EC50 [nM] |
| --- | --- |
| O=c1c2cc(Cc3ccc(Cl)nc3)c3cnccc3c2ncn1[C@H]1CCCC[C@@H]1O [Example 1, 6-[(6-Chloropyridin-3-yl)methyl]-3-[(1S,2S)-2-hydroxycyclohexyl]pyrido[3,4-h]quinazolin-4(3H)-one] | 38 |
| O=c1c2cc(Cc3ccc(Cl)nc3)c3cnccc3c2ncn1[C@H]1CCOC[C@@H]1O [Example 2, 6-[(6-Chloropyridin-3-yl)methyl]-3-[(3R,4S)-3-hydroxytetrahydro-2H-pyran-4-yl]pyrido[3,4-h]quinazolin-4(3H)-one] | 176 |
| Cc1ccc(Cc2cc3c(=O)n([C@H]4CCCC[C@@H]4O)cnc3c3ccncc23)cn1 [Example 4, 3-[(1S,2S)-2-Hydroxycyclohexyl]-6-[(6-methylpyridin-3-yl)methyl]pyrido[3,4-h]quinazolin-4(3H)-one] | 41 |
| COc1ccc(Cc2cc3c(=O)n([C@H]4CCCC[C@@H]4O)cnc3c3ccncc23)cn1 [Example 5, 3-[(1S,2S)-2-Hydroxycyclohexyl]-6-[(6-methoxypyridin-3-yl)methyl]pyrido[3,4-h]quinazolin-4(3H)-one] | 110 |
| CSc1ccc(Cc2cc3c(=O)n([C@H]4CCCC[C@@H]4O)cnc3c3ccncc23)cn1 [Example 6, 3-[(1S,2S)-2-Hydroxycyclohexyl]-6-{[6-(methylthio)pyridine-3-yl]methyl}pyrido[3,4-h]quinazolin-4(3H)-one] | 71 |
| O=c1c2cc(Cc3ccc(-n4cccn4)nc3)c3ncccc3c2ncn1[C@H]1CCCC[C@@H]1O [Example 7, 3-[(1S,2S)-2-Hydroxycyclohexyl]-6-{[6-(1H-pyrazol-1-yl)pyridine-3-yl]methyl}pyrido[2,3-h]quinazolin-4(3H)-one] | 29 |
| Cn1cc(-c2ccc(Cc3cc4c(=O)n([C@H]5CCCC[C@@H]5O)cnc4c4ccncc34)cn2)cn1 [Example 8, 3-[(1S,2S)-2-Hydroxycyclohexyl]-6-{[6-(1-methyl-1H-pyrazol-4-yl)pyridine-3-yl]methyl}pyrido[3,4-h]quinazolin-4(3H)-one] | 6 |
| O=c1c2cc(Cc3ccc(-c4cnccn4)nc3)c3cnccc3c2ncn1[C@H]1CCCC[C@@H]1O [Example 9, 3-[(1S,2S)-2-Hydroxycyclohexyl]-6-[(6-pyrazin-2-ylpyridin-3-yl)methyl]pyrido[3,4-h]quinazolin-4(3H)-one] | 64 |
| O=Cc1ccc(Cc2cc3c(=O)n([C@H]4CCCC[C@@H]4O)cnc3c3ccncc23)cc1 [Example 10, 4-({3-[(1S,2S)-2-Hydroxycyclohexyl]-4-oxo-3,4-dihydropyrido[3,4-h]quinazolin-6-yl}methyl)benzaldehyde] | 36 |
| CC(O)c1ccc(Cc2cc3c(=O)n([C@H]4CCCC[C@@H]4O)cnc3c3ccncc23)cc1 (stereo partly drawn) [Example 11, 3-[(1S,2S)-2-Hydroxycyclohexyl]-6-[4-(1-hydroxyethyl)benzyl]pyrido[3,4-h]quinazolin-4(3H)-one] | 92 |
| CCC(O)c1ccc(Cc2cc3c(=O)n([C@H]4CCCC[C@@H]4O)cnc3c3ccncc23)cc1 (stereo partly drawn) [Example 12, 3-[(1S,2S)-2-Hydroxycyclohexyl]-6-[4-(1-hydroxypropyl)benzyl]pyrido[3,4-h]quinazolin-4(3H)-one] | 130 |
| O=c1c2cc(Cc3ccc(N4CCOCC4)cc3)c3cnccc3c2ncn1[C@H]1CCCC[C@@H]1O [Example 13, 3-[(1S,2S)-2-Hydroxycyclohexyl]-6-(4-morpholin-4-ylbenzyl)pyrido[3,4-h]quinazolin-4(3H)-one] | 91 |
| Cc1cc(Cc2cc3c(=O)n([C@H]4COCC[C@@H]4O)cnc3c3cccnc23)ccn1 [Example 14, 3-[(3S,4S)-4-Hydroxytetrahydro-2H-pyran-3-yl]-6-[(2-methylpyridin-4-yl)methyl]pyrido[2,3-h]quinazolin-4(3H)-one] | 851 |
